Source: patent publication US20050119301A1, “Treatment of restenosis” (priority 2001, published 2005)
“And” between values parts separate entries of the source, which are not always exact repeats. Equal entries are not always repeated.

Assays:
human LDL = assay: Prevention of tocopherol-mediated peroxidation (anti-TMP test); assay type: biochemical; conditions: 10 mM
Protocol: The test indirectly assesses the ability of a compound to synergise with a-tocopherol in human LDL undergoing mild and chemically controlled oxidation. Oxidation is measured by the accumulation of cholesterol ester hydroperoxides at a time point corresponding to 20% consumption of endogenous a-tocopherol.
Briefly, ascorbate and ubiquinol-10-free LDL (1 mM in apoB) was supplemented with an aliquot of a stock solution of the compound to be tested. The mixture was incubated at 37° C. for 10 min and subsequently oxidized at 37° C. with a low flux of water-soluble ROO generated from AAPH (4 mM). The time-dependent consumption of LDL a-tocopherol and accumulation of cholesteryllinolate hydroperoxide (Ch18:2-OOH) were monitored by HPLC with electrochemical and post-column chemiluminescence detection, respectively. The effectiveness of an antioxidant, assigned as its anti-TMP index (redox index), was defined as the relative amounts of Ch18:2-OOH formed with versus without the added antioxidant measured after 20% consumption of the endogenous a-tocopherol in the control sample (ie. in the absence in the antioxidant). […] Butylated hydroxytoluene (BHT, 10 mM) was used as a positive control.

LDL receptor = LDL receptor expression on HepG2 cells, [125I]-LDL specific binding; assay type: cell-based, human; conditions: 10 μM; for concentration dependence of LDL receptor expression: 50 nM, 500 nM; for LDL receptor expression, Experiment 3 / LDL receptor expression, Experiment 2 / LDL receptor expression, Experiment 1: 48 hours; for LDL receptor expression, Experiment 3: control 130 ± 18; for LDL receptor expression, Experiment 2: control 261 ± 57; for LDL receptor expression, Experiment 1: control 283 ± 32
[1] = biological target: T1, Soybean 15-lipoxygenase (SLO) (Glycine max, UniProt P08170); assay: Inhibition of lipoxygenase, SLO-induced oxidation of linoleate; assay type: biochemical; parameters: dose or concentration left out as unconfirmed
T1 construct: purchased Sigma, St. Louis, Mo
T1 sequence (P08170 1-839): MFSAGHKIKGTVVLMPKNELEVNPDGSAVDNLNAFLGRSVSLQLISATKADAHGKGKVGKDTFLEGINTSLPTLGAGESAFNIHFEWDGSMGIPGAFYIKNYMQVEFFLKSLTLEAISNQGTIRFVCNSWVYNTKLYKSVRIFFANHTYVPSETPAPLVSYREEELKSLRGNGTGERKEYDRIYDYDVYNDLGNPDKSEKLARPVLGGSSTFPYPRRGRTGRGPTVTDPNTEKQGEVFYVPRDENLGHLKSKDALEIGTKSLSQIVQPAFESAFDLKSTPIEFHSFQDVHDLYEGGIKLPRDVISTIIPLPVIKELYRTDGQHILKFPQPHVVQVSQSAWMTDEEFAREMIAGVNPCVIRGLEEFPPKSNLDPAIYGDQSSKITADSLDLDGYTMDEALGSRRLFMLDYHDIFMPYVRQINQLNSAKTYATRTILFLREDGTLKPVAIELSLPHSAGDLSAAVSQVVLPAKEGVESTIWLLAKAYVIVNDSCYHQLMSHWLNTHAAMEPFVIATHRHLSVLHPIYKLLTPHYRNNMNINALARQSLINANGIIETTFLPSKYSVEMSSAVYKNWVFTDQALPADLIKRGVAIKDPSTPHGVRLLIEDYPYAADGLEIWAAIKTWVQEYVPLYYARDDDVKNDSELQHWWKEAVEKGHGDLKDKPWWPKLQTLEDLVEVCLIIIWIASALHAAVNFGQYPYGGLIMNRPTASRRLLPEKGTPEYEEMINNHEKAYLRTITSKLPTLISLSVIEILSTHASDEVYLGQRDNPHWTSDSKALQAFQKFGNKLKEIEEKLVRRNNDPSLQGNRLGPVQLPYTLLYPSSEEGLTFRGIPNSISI
Protocol: Soybean 15-lipoxygenase (SLO) is a suitable model of 15-lipoxygenase and was therefore used to assess the ability of Cpd. 7, Cpd. 8 and Cpd. 12 to inhibit this enzyme. SLO-induced oxidation of linoleate was performed as described previously (Upston et al., 1996). Briefly, linoleate (100 mM) in PBS was oxidized by SLO (60 U/mL) in the absence and presence of 10 mM Cpd. 7, Cpd. 8 or Cpd. 12, or 100 mM eicosatetraynoic acid (ETYA, positive control). Formation of linoleate hydroperoxide was monitored by UV 234 nm using the Perkin Elmer's UV/Vis Lambda 40 spectrophotomneter. The test was performed twice as single analysis. An appropriate concentration of alcohol (ethanol and isopropanol; 0.13% -0.2% v/v) was included in the respective control samples.

[2] = a-tocopheroxyl radical attenuating ability (TRAA) assay in micelles; assay type: biochemical; conditions: for TRAA, HTAC Micelle (positive) / TRAA, SDS Micelle (negative): 10 μM, relative rate constant of a-tocopheroxyl radical decay with/without sample, large = active
Protocol: The a-tocopheroxyl radical attenuating ability (TRAA) assay has been described in detail by Witting et al. (1997). Briefly, one hundred mM stock solutions of cetyltrimethyl ammonium chloride (HTAC) and sodium dodecyl sulphate (SDS) were prepared in phosphate buffer. Micellular dispersions of a-tocopherol were prepared by diluting an ethanolic solution of a-tocopherol (0.2 M) into micelles at a final vitamin concentration of […]. This resulting solution was sonicated for 15 sec at which time it was completely homogenous.
Aliquots of the a-tocopherol-containing micells were placed into the neck of an ESR flat cell […] and placed 0.5 m from a 125 W Osram HQL-Mercury fluorescent bulb used as a UV light source. To increase the light intensity, the frosted casing of the bulb was removed. Samples were irradiated for 3 min, followed by thorough mixing and subsequent transfer of the flat cell to the corresponding temperature-controlled Dewar insert in the ESR cavity, where the sample was allowed to equilibrate to 37° C. This procedure afforded a-tocopheroxyl radical (a-TO) between […] as estimated against a 10 mM TPDI nitroxide standard. ESR spectra were obtained at 9.41 GHz with modulation amplitude 1.0 G, microwave power […], and modulation frequency 12.5 kHz using a Bruker ESP 300 ESR spectrometer fitted with an X-band cavity.
After accumulation of the T=0 min spectrum, the flat cell arrangement containing a-TO was removed from the ESR cavity and the solution was gently coaxed into the neck of the flat cell under positive pressure. The compound of choice was then added to give a final concentration of 10 mM and the treated sample was replaced in the cavity and allowed to equilibrate to standard conditions, and sampling was resumed. The time-dependent decay of ESR signal intensity for a-TO was measured both in the presence and absence of the added co-antioxidant (10 mM) using a sweep time of 20.5 sec, averaging the output from three successive sweeps at each time point, and averaging the results of three separate experiments.
Results are expressed as the relative rate constant of decay of a-tocopheroxyl radicals in the presence of the test sample divided by the relative rate constant of decay of a-tocopheroxyl radicals in the absence of the test sample. TRAA approaching unity is considered to have poor synergistic activity, whereas active compounds show large values because they eliminate the a-tocopheroxyl radicals immediately upon mixing. Ascorbate was used as a positive control.

SMILES | LDL protective action in the presence of Vitamin E (in words) (human LDL) | concentration dependence of LDL receptor expression (LDL receptor) | LDL receptor expression, Experiment 3 (LDL receptor) | LDL receptor expression, Experiment 2 (LDL receptor) | LDL receptor expression, Experiment 1 (LDL receptor) | inhibition of soybean 15-lipoxygenase (in words) [1] | TRAA, HTAC Micelle (positive) [2] | TRAA, SDS Micelle (negative) [2] | elimination of a-tocopheroxyl radicals (in words) [2]
Oc1ccc(C2COc3cc(O)ccc3C2O)cc1 (stereo not shown) [Cpd. 7] | low levels of activity | increased concentration-dependently | 194 ± 46 fmol LDL receptors per mg cell protein | 306 ± 70 fmol LDL receptors per mg cell protein | 332 ± 46 fmol LDL receptors per mg cell protein | neither Cpd. 7 nor Cpd. 8 were able to inhibit SLO | 1.4 ± 0.5 | 1.9 ± 0.2 | –
Oc1ccc(C2COc3cc(O)ccc3C2O)cc1 (stereo not shown) [Cpd. 8] | low levels of activity | no clear concentration-dependent effect | 143 ± 34 fmol LDL receptors per mg cell protein | 273 ± 57 fmol LDL receptors per mg cell protein | 315 ± 24 fmol LDL receptors per mg cell protein | neither Cpd. 7 nor Cpd. 8 were able to inhibit SLO | 2.37 | 1.26 and 1.58 | –
O=C1c2ccc(O)cc2OCC1c1ccc(O)cc1 (stereo not shown) [Cpd. 5] | – | – | – | – | – | – | 5.3 and 5.4 | – | –
Oc1ccc(C2=Cc3ccc(O)cc3OC2)cc1 [Cpd. 12] | strong LDL protective action (low redox index) | – | 174 ± 35 fmol LDL receptors per mg cell protein | 161 ± 35 fmol LDL receptors per mg cell protein | 290 ± 42 fmol LDL receptors per mg cell protein | effective inhibitor of lipoxygenase type-1 | 26.77 and 25.70 | Almost immediate | induced high rate of decay and was active at eliminating a-tocopheroxyl radicals
